# Test results: patent US20250054573A1, “METHOD OF CHARACTERISING A DNA SAMPLE” (Cambridge Enterprise Limited, priority 2021, published 2025)
# System: human cancer cell lines
# Test: Kendall's Tau correlation of CIN signature activities with drug response (AUC, PRISM drug repurposing screen) across cancer cell lines
# Format: cell-based
# Conditions: for tau (Kendall's Tau), CIN signature activity vs drug response: drug AUC, PRISM screen
# From the text: Calculating signature activities for cell lines. […] Combined cell line log R and BAF data was split into sample-specific log R and BAF files. […] In this pipeline, while the rescued SNPs allow for the identification of additional segments from their Log R, by construction their average BAF is never equal to 0 or 1 even in the presence of LOH. This biases purity estimates towards lower values and renders the copy-number fitting inaccurate.
# Where nT is the total number of copies in the tumour, ρ is the purity and ψ is the average tissue ploidy. Akin to ASCAT, we picked the purity and ploidy combination that minimized the distance between nr and integer values. […] As fitting of absolute copy number to non-matched cell line data is inherently more challenging than other instances, all cell lines where ASCAT identified a plausible solution were visually inspected to determine fit suitability and excluded cell lines where absolute copy number profiles were incorrect or poorly fitted. […] For identifying the signature activities, we used the linear combination decomposition function from YAPSA (R package, v1.12.0) and the 17 signatures of CIN.
# CRISPR, RNAi and drug response data integration.
# Correlation of signatures with target gene KO, KD and drug inhibition. Kendall's Tau correlation was performed between CIN signature activities and gene essentiality scores from the genetic perturbation screens. Correlations were filtered for tau<−0.07 and q-value<0.05 after multiple testing corrections using the Benjamini-Hochberg method. […] These targets were then used to test correlation of the signature activity with matched drug inhibition of the target measured via AUC.
compound,measurement,setting,value
COc1cc2c(cc1O)CC[C@@H]1[C@@H]2CC[C@]2(C)[C@@H](O)CC[C@@H]12 [2-methoxyestradiol],"tau (Kendall's Tau), CIN signature activity vs drug response","CIN sig. CX5, Target HIF1A",−0.1543
Cn1cc(CNCC2CCN(c3ncc(C(=O)NO)cn3)CC2)c2ccccc21 [JNJ-26481585],"tau (Kendall's Tau), CIN signature activity vs drug response","CIN sig. CX17, Target HDAC2",−0.1371
same,"tau (Kendall's Tau), CIN signature activity vs drug response","CIN sig. CX17, Target HDAC4",−0.1371
O=C(c1cc(Cc2n[nH]c(=O)c3ccccc23)ccc1F)N1CCN(C(=O)C2CC2)CC1 [olaparib],"association of CX5 activity with drug response, in words","CIN sig. CX5, Target PARP1, 297 cancer cell lines",predicted response to olaparib
O=C1NC(=O)c2c1c1c3ccccc3[nH]c1c1[nH]c3ccccc3c21 [arcyriaflavin-a],"association of CX4 activity with drug response, in words","CIN sig. CX4, Target CCND1, 297 cancer cell lines",correlated with response to inhibition of CCND1
same,"tau (Kendall's Tau), CIN signature activity vs drug response","CIN sig. CX4, Target CCND1",−0.1159
same,"tau (Kendall's Tau), CIN signature activity vs drug response","CIN sig. CX13, Target CDK4",−0.07546
C/C1=C/C[C@@H](/C(C)=C/c2csc(C)n2)OC(=O)C[C@H](O)C(C)(C)C(=O)[C@H](C)[C@@H](O)[C@@H](C)CCC1 [epothilone-d],"tau (Kendall's Tau), CIN signature activity vs drug response","CIN sig. CX9, Target TUBB4B",−0.07597
OC(Cc1ccncc1)C(Cl)(Cl)Cl (stereo not shown) [PETCM],"tau (Kendall's Tau), CIN signature activity vs drug response","CIN sig. CX9, Target CASP3",−0.1078
Cc1ccc(NC(=O)c2cccc(C(C)(C)C#N)c2)cc1Nc1ccc2ncn(C)c(=O)c2c1 [AZ-628],"tau (Kendall's Tau), CIN signature activity vs drug response","CIN sig. CX1, Target BRAF",−0.09859
same,"tau (Kendall's Tau), CIN signature activity vs drug response","CIN sig. CX14, Target BRAF",−0.1048
same,"tau (Kendall's Tau), CIN signature activity vs drug response","CIN sig. CX14, Target RAF1",−0.1048
same,"tau (Kendall's Tau), CIN signature activity vs drug response","CIN sig. CX15, Target BRAF",−0.1189
